Patent publication US9573957B2 (Boehringer Ingelheim International GmbH, priority 2013, dated 2017)
pIC50: −log10 of the molar value.

Experiments:
[1] = tested on: synthesis of LTB4 in human whole blood; test: LTB4 production inhibition assay in human whole blood (HWB); type: cell-based; conditions: heparinized human whole blood, 15 min at 37° C., Calcimycin 20 μM 30 min, plasma LTB4 by HTRF
Protocol: The compounds of the invention are additionally tested in a human whole blood (HWB) assay to determine their ability to inhibit the synthesis of LTB4 in a cellular system. Compounds are combined with heparinized human whole blood and incubated for 15 minutes at 37° C. Calcimycin (20 μM final, prepared in phosphate-buffered saline, pH 7.4) is then added and the mixture is incubated for another 30 minutes at 37° C. The samples are centrifuged for 5 min at low speed (1500×g) and the plasma layer is removed. Plasma LTB4 concentrations are then measured using an antibody-based homogenous time-resolved fluorescence method (CisBio, Bedford, Mass.).

human LTA4 hydrolase = human LTA4 hydrolase (Homo sapiens (Human), UniProt P09960); test: LTA4H Enzyme assay (peptidase, Arg-AMC cleavage); type: biochemical; conditions: LTA4H Enzyme 1 nM, Arg-AMC substrate 50 μM, room temperature 1 h, fluorescence
Protocol: The compounds of the invention are assessed for the ability to interact with human LTA4 hydrolase in an enzymatic assay that measures the ability of the enzyme to cleave the peptide bond of arginyl-aminomethylcoumarin (Arg-AMC). LTA4H Enzyme (1 nM final), Arg-AMC substrate (50 μM final), and compound are combined in a reaction buffer (50 mM Tris-HCl (pH 7.5), 100 mM KCl, 0.5% bovine serum albumin) at room temperature for 1 h. The formation of product is assessed by measuring the fluorescence of aminomethylcoumarin product (excitation wavelength 380 nm/emission wavelength 460 nm).

Chain of human LTA4 hydrolase (P09960 whole entry): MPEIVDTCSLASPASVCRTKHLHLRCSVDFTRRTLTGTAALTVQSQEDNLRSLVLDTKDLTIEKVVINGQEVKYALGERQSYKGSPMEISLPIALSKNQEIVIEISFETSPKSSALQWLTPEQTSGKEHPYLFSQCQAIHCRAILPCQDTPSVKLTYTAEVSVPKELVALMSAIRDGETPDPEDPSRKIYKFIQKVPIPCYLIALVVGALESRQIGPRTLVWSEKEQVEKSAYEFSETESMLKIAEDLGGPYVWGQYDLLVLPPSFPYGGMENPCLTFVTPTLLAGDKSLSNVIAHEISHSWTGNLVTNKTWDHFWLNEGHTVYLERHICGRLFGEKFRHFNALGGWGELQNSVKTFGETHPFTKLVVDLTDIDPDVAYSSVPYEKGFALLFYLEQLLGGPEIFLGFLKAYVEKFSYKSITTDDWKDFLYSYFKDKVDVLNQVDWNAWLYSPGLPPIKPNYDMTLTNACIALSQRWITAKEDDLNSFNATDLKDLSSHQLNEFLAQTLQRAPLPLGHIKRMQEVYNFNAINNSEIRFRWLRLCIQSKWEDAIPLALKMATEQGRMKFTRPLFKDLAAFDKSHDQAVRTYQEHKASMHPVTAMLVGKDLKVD

C[C@H](O)C(=O)N1CCN(Cc2ccc3cc(Oc4ncc(-c5ccn[nH]5)cn4)ccc3c2)CC1 [Example 30, (S)-2-Hydroxy-1-(4-{6-[5-(2H-pyrazol-3-yl)-pyrimidin-2-yloxy]-naphthalen-2-ylmethyl}-piperazin-1-yl)-propan-1-one]
pIC50 [1]: 6.64 | pIC50 (human LTA4 hydrolase): 8.89

CN(C(=O)CO)C1CCN(Cc2ccc3cc(Oc4ncc(-c5ccn[nH]5)cn4)ccc3c2)CC1 [Example 31, 2-Hydroxy-N-methyl-N-(1-{6-[5-(2H-pyrazol-3-yl)-pyrimidin-2-yloxy]-naphthalen-2-ylmethyl}-piperidin-4-yl)-acetamide]
pIC50 [1]: 6.57 | pIC50 (human LTA4 hydrolase): 8.82

CC(=O)N1CC(CN(C)Cc2ccc3cc(Oc4ncc(-c5ccn[nH]5)cn4)ccc3c2)C1 [Example 32, 1-{3-[(Methyl-{6-[5-(2H-pyrazol-3-yl)-pyrimidin-2-yloxy]-naphthalen-2-ylmethyl}-amino)-methyl]-azetidin-1-yl}-ethanone]
pIC50 [1]: 6.74 | pIC50 (human LTA4 hydrolase): 8.96

O=C1OCCN1C1CCN(Cc2ccc3cc(Oc4ncc(-c5ccn[nH]5)cn4)ccc3c2)CC1 [Example 33, 3-(1-{6-[5-(2H-Pyrazol-3-yl)-pyrimidin-2-yloxy]-naphthalen-2-ylmethyl}-piperidin-4-yl)-oxazolidin-2-one]
pIC50 [1]: 6.82 | pIC50 (human LTA4 hydrolase): 9.04

CN(C)C(=O)N1CCN(Cc2ccc3cc(Oc4ncc(-c5ccn[nH]5)cn4)ccc3c2)CC1 [Example 34, 4-{6-[5-(2H-Pyrazol-3-yl)-pyrimidin-2-yloxy]-naphthalen-2-ylmethyl}-piperazine-1-carboxylic acid dimethylamide]
pIC50 [1]: 6.37 | pIC50 (human LTA4 hydrolase): 9.09

CC(C)(C)C(=O)N1CCN(Cc2ccc3cc(Oc4ncc(-c5ccn[nH]5)cn4)ccc3c2)CC1 [Example 35, 2,2-Dimethyl-1-(4-{6-[5-(2H-pyrazol-3-yl)-pyrimidin-2-yloxy]-naphthalen-2-ylmethyl}-piperazin-1-yl)-propan-1-one]
pIC50 [1]: 6.02 | pIC50 (human LTA4 hydrolase): 8.57

O=C1CCCN1C1CCN(Cc2ccc3cc(Oc4ncc(-c5ccn[nH]5)cn4)ccc3c2)CC1 [Example 36, 1-(1-{6-[5-(2H-Pyrazol-3-yl)-pyrimidin-2-yloxy]-naphthalen-2-ylmethyl}-piperidin-4-yl)-pyrrolidin-2-one]
pIC50 [1]: 6.66 | pIC50 (human LTA4 hydrolase): 8.72

CCC(=O)N1CCN(Cc2ccc3cc(Oc4ncc(-c5ccn[nH]5)cn4)ccc3c2)CC1 [Example 37, 1-(4-{6-[5-(2H-Pyrazol-3-yl)-pyrimidin-2-yloxy]-naphthalen-2-ylmethyl}-piperazin-1-yl)-propan-1-one]
pIC50 [1]: 6.92 | pIC50 (human LTA4 hydrolase): 9.37

CN(C)C(=O)C1CCN(Cc2ccc3cc(Oc4ncc(-c5ccn[nH]5)cn4)ccc3c2)CC1 [Example 38, 1-{6-[5-(2H-Pyrazol-3-yl)-pyrimidin-2-yloxy]-naphthalen-2-ylmethyl}-piperidine-4-carboxylic acid dimethylamide]
pIC50 [1]: 6.74 | pIC50 (human LTA4 hydrolase): 8.92

CC(C)(O)C(=O)N1CCN(Cc2ccc3cc(Oc4ncc(-c5ccn[nH]5)cn4)ccc3c2)CC1 [Example 39, 2-Hydroxy-2-methyl-1-(4-{6-[5-(2H-pyrazol-3-yl)-pyrimidin-2-yloxy]-naphthalen-2-ylmethyl}-piperazin-1-yl)-propan-1-one]
pIC50 [1]: 6.49 | pIC50 (human LTA4 hydrolase): 8.66

O=C(C1CC1)N1CCN(Cc2ccc3cc(Oc4ncc(-c5ccn[nH]5)cn4)ccc3c2)CC1 [Example 40, Cyclopropyl-(4-{6-[5-(2H-pyrazol-3-yl)-pyrimidin-2-yloxy]-naphthalen-2-ylmethyl}-piperazin-1-yl)-methanone]
pIC50 [1]: 6.47 | pIC50 (human LTA4 hydrolase): 8.74

CC(C)C(=O)N1CCN(Cc2ccc3cc(Oc4ncc(-c5ccn[nH]5)cn4)ccc3c2)CC1 [Example 41, 2-Methyl-1-(4-{6-[5-(2H-pyrazol-3-yl)-pyrimidin-2-yloxy]-naphthalen-2-ylmethyl}-piperazin-1-yl)-propan-1-one]
pIC50 [1]: 6.37 | pIC50 (human LTA4 hydrolase): 9.01

OC1CN(Cc2ccc3cc(Oc4ccc(-c5ccn[nH]5)cn4)ccc3n2)C1 [Example 42, 1-{6-[5-(2H-Pyrazol-3-yl)-pyridin-2-yloxy]-quinolin-2-ylmethyl}-azetidin-3-ol]
pIC50 [1]: 6.72 | pIC50 (human LTA4 hydrolase): 9.04

N#CCCNCc1ccc2cc(Oc3ccc(-c4ccn[nH]4)cn3)ccc2n1 [Example 43, 3-({6-[5-(2H-Pyrazol-3-yl)-pyridin-2-yloxy]-quinolin-2-ylmethyl}-amino)-propionitrile]
pIC50 [1]: 6.17 | pIC50 (human LTA4 hydrolase): 8.70

CC[C@H](CC#N)NCc1ccc2cc(Oc3ccc(-c4ccn[nH]4)cn3)ccc2n1 [Example 44, (R)-3-({6-[5-(2H-Pyrazol-3-yl)-pyridin-2-yloxy]-quinolin-2-ylmethyl}-amino)-pentanenitrile]
pIC50 [1]: 6.06 | pIC50 (human LTA4 hydrolase): 8.57

O[C@@H]1CCN(Cc2ccc3cc(Oc4ncc(-c5ccn[nH]5)cn4)ccc3c2)C1 [Example 45, (R)-1-{6-[5-(2H-Pyrazol-3-yl)-pyrimidin-2-yloxy]-naphthalen-2-ylmethyl}-pyrrolidin-3-ol]
pIC50 [1]: 6.51 | pIC50 (human LTA4 hydrolase): 8.62

O[C@H]1CCN(Cc2ccc3cc(Oc4ncc(-c5ccn[nH]5)cn4)ccc3c2)C1 [Example 46, (S)-1-{6-[5-(2H-Pyrazol-3-yl)-pyrimidin-2-yloxy]-naphthalen-2-ylmethyl}-pyrrolidin-3-ol]
pIC50 [1]: 6.64 | pIC50 (human LTA4 hydrolase): 8.60

CC1(O)CN(Cc2ccc3cc(Oc4ncc(-c5ccn[nH]5)cn4)ccc3c2)C1 [Example 47, 3-Methyl-1-{6-[5-(2H-pyrazol-3-yl)-pyrimidin-2-yloxy]-naphthalen-2-ylmethyl}-azetidin-3-ol]
pIC50 [1]: 6.68 | pIC50 (human LTA4 hydrolase): 8.72

O=C(CO)N1CCN(Cc2ccc3cc(Oc4ncc(-c5ccn[nH]5)cn4)ccc3c2)CC1 [Example 48, 2-Hydroxy-1-(4-{6-[5-(2H-pyrazol-3-yl)-pyrimidin-2-yloxy]-naphthalen-2-ylmethyl}-piperazin-1-yl)-ethanone]
pIC50 [1]: 6.21 | pIC50 (human LTA4 hydrolase): 8.54

OC1CN(Cc2ccc3cc(Oc4ncc(-c5ccn[nH]5)cn4)ccc3c2)C1 [Example 49, 1-{6-[5-(2H-Pyrazol-3-yl)-pyrimidin-2-yloxy]-naphthalen-2-ylmethyl}-azetidin-3-ol]
pIC50 [1]: 6.68 | pIC50 (human LTA4 hydrolase): 8.66

N#CCC(=O)N1CC2CCC(C1)N2Cc1ccc2cc(Oc3ccc(-c4ccn[nH]4)cn3)ccc2n1 [Example 50, 3-Oxo-3-(8-{6-[5-(2H-pyrazol-3-yl)-pyridin-2-yloxy]-quinolin-2-ylmethyl}-3,8-diaza-bicyclo[3.2.1]oct-3-yl)-propionitrile]
pIC50 [1]: 6.77 | pIC50 (human LTA4 hydrolase): 9.16

CC(C)(C#N)C(=O)N1CC2CCC(C1)N2Cc1ccc2cc(Oc3ccc(-c4ccn[nH]4)cn3)ccc2n1 [Example 51, 2,2-Dimethyl-3-oxo-3-(8-{6-[5-(2H-pyrazol-3-yl)-pyridin-2-yloxy]-quinolin-2-ylmethyl}-3,8-diaza-bicyclo[3.2.1]oct-3-yl)-propionitrile]
pIC50 [1]: 6.68 | pIC50 (human LTA4 hydrolase): 9.14

CO[C@H](C)C(=O)N1CC2CCC(C1)N2Cc1ccc2cc(Oc3ccc(-c4ccn[nH]4)cn3)ccc2n1 [Example 52, (R)-2-Methoxy-1-(8-{6-[5-(2H-pyrazol-3-yl)-pyridin-2-yloxy]-quinolin-2-ylmethyl}-3,8-diaza-bicyclo[3.2.1]oct-3-yl)-propan-1-one]
pIC50 [1]: 6.82 | pIC50 (human LTA4 hydrolase): 9.11
